Experimental data from US20140370131A1, “Pharmaceutical Composition for Protecting Brain Neurons Comprising Plumula Nelumbinis Extract as Active Ingredient” (priority 2012, published 2014).

Key:
[1] = Hydrogen peroxide (H2O2) scavenging activity, ABTS-peroxidase system; details: pH 5.0, absorbance at 405 nm
Protocol: Hydrogen peroxide (H2O2) scavenging activity was measured in a 2,2-azinobis(3-ethylbenzthiazolin)-6-sulfonicacid (ABTS)-peroxidase system according to the Muller method. Each sample was diluted at varying concentrations. 80 μL of each sample solution, 20 μL of 10 mM H2O2 and 100 μL of phosphate buffer (pH 5.0, 0.1 M) were added to a 96-well plate and reacted at 37° C. for 5 minutes. Then, 30 μL of 1.25 mM ABTS and 30 μL of 1 U/mL peroxidase were added thereto and reacted at 37° C. for 10 minutes, and the absorbance at 405 nm was measured using an enzyme-linked immunosorbent assay (ELISA) reader.

ICR mice = experiment: Morris water maze test, scopolamine-induced memory damage; format: in vivo, mouse; details: memory acquisition test for 4 days; scopolamine 1 mg/kg i.p.; test samples oral (extract 3, 10, 30, 100, 200 mg/kg)
Protocol: To observe the cell-protecting effect and cognitive function-improving effect of the Plumula nelumbinis extract in vivo using a Morris water maze test, International Cancer Research (ICR) mice having an average weight of about 30 g were purchased and acclimated to the environment of the laboratory for 1 week before use in the experiment. The animal breeding room was maintained at room temperature (ca. 22±2° C.) with 12 h light (200-300 lux)/12 h dark cycles. The animals had free access to food (i.e., 22.1% or more crude protein, 8.0% or less crude fat, 0.6% or more calcium, and 0.4% or more phosphorus; Samyang Corp., Korea) and water. The animals were divided into a control group administered with the same amount of injectable saline without scopolamine (Sigma Aldrich), and a group administered with scopolamine. The group administered with scopolamine was treated with 3, 10, 30, 100 and 200 mg/kg of a 80% methanol extract of Plumula nelumbinis. As a positive control, donepezil was used, which is a cholinesterase inhibitor-based drug approved by the FDA, and is used for the treatment of mild, moderate, or severe Alzheimer's disease and for the alleviation of vascular dementia (i.e., dementia involving cerebrovascular disease).
Each of the test samples and the positive control drug was suspended in injectable sterile water and administered at a unit dose of 10 ml/kg. Scopolamine (1 mg/kg) was administered intraperitoneally each day for 4 days, and the test sample and the positive control drug were administered orally (FIGS. 8A and 8B).
In the water maze test, a learning trial was performed on the day before administration of the extract, and then a memory acquisition test was repeated for 4 days. In the learning trial, each test animal was placed into a water pool ([…]) at one of four release points and allowed to find a platform ([…]) by swimming for 60 seconds. […]
During the memory acquisition test, 1 mg/kg of scopolamine was administered intraperitoneally once a day for 4 days at 60 minutes after administration of the Plumula nelumbinis extract. […] The cognitive ability-improving effect was evaluated by measuring the average swimming time (sec) taken for the test animal to find the platform (sec).
After the learning trial for 1 day, scopolamine was administered to cause damage to cognitive function (memory), and the Moths water maze test was performed to examine the cognitive function-improving effect of the extract. In the memory acquisition test performed over 4 days, the cognitive function-improving effect of the extract was evaluated based on a decrease in each of the average swimming times taken to find the platform and the swimming distance. […]

[2] = DPPH radical scavenging activity; details: 30 minutes in the dark, absorbance at 517 nm
Protocol: The test sample was weighed, dissolved in methanol or ethanol, and then filtered through a 0.45-μm filter. The prepared sample was serially diluted. Varying concentrations of 150 μl of each diluted sample were added to a 96-well micro plate, followed by addition of DPPH. The 96-well micro plate was placed in a dark room and allowed to stand for 30 minutes. The absorbance at 517 nm was measured.

DPPH radical scavenging IC50 [2] [µg/mL] | SMILES | hydrogen peroxide (H2O2) scavenging IC50 [1] [µg/mL] | average swimming distance (ICR mice) | average swimming time taken to find the platform (ICR mice)
– | COc1ccc(O)c(C(C)(C)C)c1 [butylated hydroxy anisole (BHA), butylated hydroxy anisole] | 160.58 | – | –
– | COc1cc2c(cc1OC)C(=O)C(CC1CCN(Cc3ccccc3)CC1)C2 (stereo not drawn) [donepezil] | – | gradual decreases | gradual decreases
– | CN1[C@@H]2C[C@@H](OC(=O)[C@H](CO)c3ccccc3)C[C@H]1[C@@H]1O[C@@H]12 [scopolamine] | – | increased rather than decreased | increased rather than decreased
27.73 | O=C1O[C@H]([C@@H](O)CO)C(O)=C1O [vitamin C, ascorbic acid] | – | – | –
